The record followed here is ChEMBL document CHEMBL3507680, “University of Dundee, Gates Library screen for HepG2 cell viability”.

The nature of this data set: Human HepG2 cell viability assay in 384 well format. The format is toxicity, cell-based. Also noted: dose 125 nL, time 70.5 hour; cytotoxicity at 70.5 h: concentration not given beside the values. The settings on record: HepG2 cells, read-out: Inhibition.
For `C[C@H]1C[C@H]2CN(C(=O)CC3CC3)CC[C@H]2O1`, the cytotoxicity at 70.5 h is -7.47%. Under `CCC1(CO)CCCN(C(=O)c2cc(COc3cccc(F)c3)[nH]n2)C1` (centres undefined) stands -3.53%. Under `Cc1nc[nH]c1CN1CCCC12CCN(c1ccccn1)CC2` stands -3.64%; under `CN(C)CCN1CC2(CCC1=O)CCN(C(=O)c1ccn(C)n1)CC2`, -2.52%; under `CCn1c(C2CCCN(Cc3ccnc4ccccc34)C2)nn(C)c1=O` (centres undefined), -7.68%. As for `CCC[C@H]1CN(S(=O)(=O)c2ccc(Cl)cc2)C[C@@H]1NC(C)=O`, the figure is 22.5%; as for `COc1cc(Oc2ccc(C#N)cn2)ccc1CN1CCCC1`, -5.77%; as for `O=C(NCCC1CCCCO1)c1coc(COc2ccc(F)cc2)n1` (centres undefined), -6.58%. As to `OC1(CN2CCC(Oc3cccc(C(F)(F)F)c3)CC2)CCNC1` (centres undefined), the cytotoxicity at 70.5 h is -7.31%. Under `O=C(O)c1cccnc1N1CCN(Cc2ccc(F)cc2)C(CCO)C1` (centres undefined) stands 22.4%; under `O=C(c1ccc(-n2cccn2)cc1Cl)N1CCCC(O)(CO)C1` (centres undefined), -4.68%; under `N[C@H]1CN(CCCOc2ccccc2)C[C@@H]1C1CC1`, -3.74%. Under `Cc1nccn1CCC(=O)N1CCCN(CCCc2ccccc2)CC1` stands 1.37%; under `O=C(c1cccc(-c2ncc[nH]2)c1)N1CC[C@H](CO)[C@@H](O)C1`, -2.73%; under `Cc1cc(N2CCCC(N(C)C)C2)n2nc(C)cc2n1` (centres undefined), -17%. Regarding `Cc1noc2ncnc(NC(CC(C)(C)C)c3cccnc3)c12` (centres undefined), the cytotoxicity at 70.5 h is -14%. As for `c1ccc(-c2cccc(N3CCC(NCCc4cscn4)CC3)c2)cc1`, the figure is -7.94%; as for `CN1CSC[C@H]1C(=O)N1CCC(Cc2ccccc2F)CC1`, -4.33%; as for `CN(Cc1cc(C2CC2)on1)C(=O)CN1CC(c2ccccc2)CC1=O` (centres undefined), -8.22%. Regarding `CCc1nc(CNC(=O)c2ccc(C(C)N3CCCCC3)o2)cc(=O)[nH]1` (centres undefined), the cytotoxicity at 70.5 h was -6.44%.

For `Cc1cc(=O)c(C(=O)N2CCC(C(O)Cc3ccccc3)CC2)c(C)[nH]1` (centres undefined), the cytotoxicity at 70.5 h was -14.4%. Under `Cc1ccccc1OC1(C(=O)O)CCN(C(=O)CCc2ccco2)CC1` stands -3.93%.

`COCCN(CCOC)c1nc2c(s1)c(C)nn2C`: the cytotoxicity at 70.5 h is -13.8%. Under `Cc1c[nH]c(CN2CCCCC2CCn2cccn2)c(C)c1=O` (centres undefined) stands -10.2%; under `COc1ccc(-c2cc(C3CC3)c(C#N)c(N)n2)cc1F`, 11.2%; under `Cc1cc(C)n(CCCN(C)C(=O)[C@H]2CCCO2)n1`, -14.9%.

Consider `O=C(c1ccc(-c2cccc3c2CCNC3)o1)N1CCCC1`, for which the cytotoxicity at 70.5 h is -9.64%. Under `Cc1ccc(-c2nc3cc(S(=O)(=O)N4CCCC4)ccc3n2C)o1` stands -11.7%.

Regarding `CCC(C(=O)NCC1CCN(c2cnn(C)c(=O)c2)CC1)n1cccn1` (centres undefined), the cytotoxicity at 70.5 h is -7.23%. Turning to `Cc1nc2cc(OCc3nc(C(=O)NC(CO)CO)co3)ccc2s1`, the cytotoxicity at 70.5 h was -8.5%.

As to `CCn1c(CN(C)C)nnc1C1CCN(Cc2ccc(Cl)cc2)CC1`, the cytotoxicity at 70.5 h worked out at 0.347%. For the compound `COc1ccc(-c2nccn2CCN2CCCCC2)c(OC)c1OC`, the cytotoxicity at 70.5 h was found to be 4.66%. As for `CN(C)CCNc1cc(-c2ncccc2C(F)(F)F)c2cc[nH]c2n1`, the figure is -6.02%.

Turning to `Cc1cccnc1CN1CCN(Cc2ccc(-c3cc[nH]n3)o2)CC1`, the cytotoxicity at 70.5 h was -7.65%. Take `O=C1CC(NS(=O)(=O)N2CCOCC2)CN1CCc1ccccc1` (centres undefined): the cytotoxicity at 70.5 h is -3.7%. Under `Cc1ccccc1N1CCCN(C(=O)CN2C(=O)OC[C@@H]2C(C)C)CC1` stands 25.8%. As for `O=C1NCCN2CCN(C(=O)NCCc3ccccc3)CC12` (centres undefined), the figure is -9.06%.

As for `CCn1c(CN(C)C)nnc1C1CCN(Cc2ccc(C)s2)CC1`, the cytotoxicity at 70.5 h was -2.28%. For the compound `Cc1ccc(CSc2nc(N)cc(NCCC(N)=O)n2)cc1`, the cytotoxicity at 70.5 h was -0.193%. Under `CN(CCc1ccccn1)C(=O)CCC1CCCN(c2cnccn2)C1` (centres undefined) stands 2.36%. `CN(Cc1nc(-c2ccccc2)no1)C(=O)CNS(C)(=O)=O`: the cytotoxicity at 70.5 h is -8.66%. Under `Cc1cc(N2CCN(C(=O)[C@@H]3C[C@@H]4C=C[C@H]3C4)CC2)cc(C)n1` stands -15.6%. As for `CC(C)[C@@H]1CN(S(=O)(=O)Cc2ccccc2)C[C@H]1C(=O)O`, the figure is -3.52%. As for `CC(=O)c1cc(CN2C[C@H]3CC[C@@H]2CN(S(C)(=O)=O)C3)cs1`, the figure is 13.8%; as for `Cc1nc2c(c(=O)n1C)CN(C(=O)C1CCCN(C(N)=O)C1)C2` (centres undefined), -4.13%. With `OC1CCN(CCCNc2nccc(C3CCCC3)n2)CC1`, the cytotoxicity at 70.5 h was -2.73%. Under `CC(=O)N1CCN(Cc2ccc(F)c(C(F)(F)F)c2)CC(O)C1` (centres undefined) stands -8.55%; under `CCOCCCNC(=O)C1CCC(=O)N(CCc2ccc(Cl)cc2)C1` (centres undefined), -7.25%. Turning to `CCN1CCN(C(=O)c2cc(C(F)(F)F)n[nH]2)[C@H]2CS(=O)(=O)C[C@H]21`, the cytotoxicity at 70.5 h is -18.6%.

With `Cc1cccc(=O)n1CCC(=O)N1CC[C@@](O)(C2CCC2)[C@H](C)C1`, the cytotoxicity at 70.5 h was -9.83%. As for `O=C1CCC(C(=O)N2CCOC(Cc3cccc4ccccc34)C2)=NN1` (centres undefined), the figure is 18.7%; as for `CCOC(=O)CC1CCCCN1C(=O)c1cccc2ccnn12` (centres undefined), -6.11%; as for `CC(=O)Nc1ccc(CN(C)Cc2snnc2C)cc1`, -5.27%. In the case of `Cc1c[nH]c(CN(C)C(=O)CCn2cnc3ccccc32)n1`, the cytotoxicity at 70.5 h is -1.23%. Under `COc1ccc(/C=C/CN2C[C@H]3CC[C@@H]2CN(S(=O)(=O)N(C)C)C3)cc1` stands -5.26%; under `Cc1cc(C(=O)N2CC(O)CO2)c2ccc(C)c(C)c2n1` (centres undefined), -6.82%; under `Cn1nnnc1SCCNC(=O)C1CCN(C(=O)C2CCC2)CC1`, -5.55%.

As for `Fc1ccc2[nH]c(C3CCCN3Cc3c[nH]cn3)nc2c1` (centres undefined), the cytotoxicity at 70.5 h came to 28.4%. Under `COc1cccc(Cn2ncnc2COC(C)C)c1` stands -15.5%.

Turning to `CCOC(=O)CCNC(=O)N1CCCC(CNC(=O)c2cccs2)C1` (centres undefined), the cytotoxicity at 70.5 h is -6.29%.

Regarding `COc1ccc2[nH]nc(CN3CCC(C(C)N4CCCC4)CC3)c2c1` (centres undefined), the cytotoxicity at 70.5 h is -1.99%. In the case of `COCC(Nc1ncnc2c1CCNCC2)c1ccccn1` (centres undefined), the cytotoxicity at 70.5 h was -12.5%.

As for `Cc1nn(C)c2nc(N(CCN(C)C)CC3CCCO3)sc12` (centres undefined), the cytotoxicity at 70.5 h was -7.79%. As to `CCCc1cc(C(=O)NCCC2=CCCCC2)[nH]n1`, the cytotoxicity at 70.5 h is -9.53%. As for `O=C1NCCN1CCNCC1(O)CCCN(CCC2CCCCC2)C1=O` (centres undefined), the figure is -4.14%; as for `CCCn1cc(C(=O)N[C@H]2CC[C@H](n3cnnc3)CC2)c(C)n1`, 0.742%. Under `COc1ccc2cc(CN(C)CCc3cn[nH]c3)c(=O)[nH]c2c1` stands -6.43%; under `CC(O)c1cccc(-n2c(CCC(=O)O)nc3ccccc32)c1` (centres undefined), -8.25%; under `COc1nc2ccn(CCNc3cc(C)ccn3)c(=O)c2cc1C#N`, -3.78%.
